Reference: PubChem BioAssay (NCI)
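Cells were grown in 96-well plates and exposed to each compound for 48 hours at five concentrations; endpoints were interpolated linearly between bracketing concentrations, or set to the highest concentration if not reached. The concentration for 50% growth inhibition is given as GI50. TGI is the concentration that stops growth completely.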

Tests used:
Assay in all cases: NCI anticancer screen, dose series, 48 h
[1] = system: A549 NSCLC
[2] = system: BT-549 breast
[3] = system: EKVX NSCLC
[4] = system: HCT-15 colon
[5] = system: HOP-92 NSCLC
[6] = system: HT29 colon
[7] = system: MDA-MB-435
[8] = system: NCI-H226 lung
[9] = system: NCI-H460 lung
[10] = system: SK-MEL-5 melanoma

| Structure (SMILES) | TGI [1] [µM] | TGI [2] [µM] | TGI [3] [µM] | TGI [4] [µM] | TGI [5] [µM] | TGI [6] [µM] | TGI [7] [µM] | TGI [8] [µM] | TGI [9] [µM] | TGI [10] [µM] | GI50 [1] [µM] | GI50 [2] [µM] | GI50 [3] [µM] | GI50 [4] [µM] | GI50 [5] [µM] | GI50 [6] [µM] | GI50 [7] [µM] | GI50 [8] [µM] | GI50 [9] [µM] | GI50 [10] [µM] |
| --- | --- | --- | --- | --- | --- | --- | --- | --- | --- | --- | --- | --- | --- | --- | --- | --- | --- | --- | --- | --- |
| O=C(O)c1cc(C(=O)C(=O)c2cc(C(=O)O)c(O)c3ccccc23)c2ccccc2c1O | > 100 | > 100 | > 100 | > 100 | > 100 | > 100 | > 100 | > 100 | > 100 | > 100 |  |  |  |  |  |  |  |  |  |  |
| O=C(CSc1nc2ccc([N+](=O)[O-])cc2[nH]1)Nc1ccc([N+](=O)[O-])cc1 | 14.2 | 14.3 | 10.8 | 17.6 | 2.22 | 10.6 | 12.7 | 7.88 | 12.3 | 2.54 | 2.94 | 2.34 | 2.23 | 2.93 | 0.293 | 2.82 | 2.66 | 2 | 2.9 | 1.2 |
| COc1cc2c3c(n(CCCNC(C)(C)CO)c(=O)c2cc1OC)-c1cc2c(cc1C3=O)OCO2 | 23.9 | 39.2 | 42.7 | 16.6 | > 53.1 | > 100 | > 75.5 | 8.33 | > 69.2 | 13.3 | 1.5 | 12.9 | 16.6 | 2.04 | > 25.9 | 1.08 | 4.52 | 0.392 | 1.15 | 3.5 |
| CCOC(=O)c1cc2c(OC)cc(OC)cc2oc1=O | > 100 | > 100 | > 100 | > 100 | > 100 | > 100 | > 100 | > 100 | > 100 | > 100 |  |  |  |  |  |  |  |  |  |  |
| O=C(NCCCNc1cc(-c2cn(-c3ccccc3)nc2-c2cccc(O)c2)ccn1)c1ccc(F)cc1 | 20.8 | 6.31 | 69.1 | 4.7 | 7.65 | 5.43 | 4.44 | 12.4 | 11.5 | 3.55 | 3.65 | 1.59 | 3.7 | 1.77 | 2.13 | 1.7 | 1.74 | 3.7 | 3.14 | 1.61 |
| CSc1nc(SC)c2cnn(-c3ccnc4cc(Cl)ccc34)c2n1 | > 100 | > 87.7 | 70.5 | > 100 | > 100 | > 100 | > 100 | > 100 | > 45.6 | > 100 | > 85.7 | 43.3 | 25.9 | > 71.3 | > 63.6 | > 100 | 10.7 | 85.4 | 9.36 | 51.9 |
